Source: ChEMBL document CHEMBL1909046, “DrugMatrix in vitro pharmacology data”
*1 amine or outer side, *2 acyl side, *3 side chain or, on linkers, in order; H or OH if unused. Where a SMILES comes first, the peptide text is derived from it. Bridges are numbered along the chain shown (N, C = ends). Roman numbers before positions name the chains, in order. [ ]: non-standard residue; d: D form. Actinocin(1to9) = Cc1c2oc3c(C)ccc(C(=O)[*:2])c3nc-2c(C(=O)[*:1])c(N)c1=O; NMeV = CN[C@H](C(=O)O)C(C)C; Sar = CNCC(=O)O

Experiments:
[1] = molecular target: cGMP-specific 3',5'-cyclic phosphodiesterase (Homo sapiens, UniProt O76074); test: DRUGMATRIX: Phosphodiesterase PDE5 enzyme inhibition (substrate: [3H]cGMP + cGMP); type: tissue-based; conditions: platelet; Not Active = under 50% inhibition at 10 µM
Nitric oxide synthase 1 = Nitric oxide synthase 1 (Rattus norvegicus, UniProt P29476); type: tissue-based, Cerebellum; further: in other assays of this panel Not Active means under 50% inhibition at 10 µM
Nitric oxide synthase 1, sequence (P29476 whole entry): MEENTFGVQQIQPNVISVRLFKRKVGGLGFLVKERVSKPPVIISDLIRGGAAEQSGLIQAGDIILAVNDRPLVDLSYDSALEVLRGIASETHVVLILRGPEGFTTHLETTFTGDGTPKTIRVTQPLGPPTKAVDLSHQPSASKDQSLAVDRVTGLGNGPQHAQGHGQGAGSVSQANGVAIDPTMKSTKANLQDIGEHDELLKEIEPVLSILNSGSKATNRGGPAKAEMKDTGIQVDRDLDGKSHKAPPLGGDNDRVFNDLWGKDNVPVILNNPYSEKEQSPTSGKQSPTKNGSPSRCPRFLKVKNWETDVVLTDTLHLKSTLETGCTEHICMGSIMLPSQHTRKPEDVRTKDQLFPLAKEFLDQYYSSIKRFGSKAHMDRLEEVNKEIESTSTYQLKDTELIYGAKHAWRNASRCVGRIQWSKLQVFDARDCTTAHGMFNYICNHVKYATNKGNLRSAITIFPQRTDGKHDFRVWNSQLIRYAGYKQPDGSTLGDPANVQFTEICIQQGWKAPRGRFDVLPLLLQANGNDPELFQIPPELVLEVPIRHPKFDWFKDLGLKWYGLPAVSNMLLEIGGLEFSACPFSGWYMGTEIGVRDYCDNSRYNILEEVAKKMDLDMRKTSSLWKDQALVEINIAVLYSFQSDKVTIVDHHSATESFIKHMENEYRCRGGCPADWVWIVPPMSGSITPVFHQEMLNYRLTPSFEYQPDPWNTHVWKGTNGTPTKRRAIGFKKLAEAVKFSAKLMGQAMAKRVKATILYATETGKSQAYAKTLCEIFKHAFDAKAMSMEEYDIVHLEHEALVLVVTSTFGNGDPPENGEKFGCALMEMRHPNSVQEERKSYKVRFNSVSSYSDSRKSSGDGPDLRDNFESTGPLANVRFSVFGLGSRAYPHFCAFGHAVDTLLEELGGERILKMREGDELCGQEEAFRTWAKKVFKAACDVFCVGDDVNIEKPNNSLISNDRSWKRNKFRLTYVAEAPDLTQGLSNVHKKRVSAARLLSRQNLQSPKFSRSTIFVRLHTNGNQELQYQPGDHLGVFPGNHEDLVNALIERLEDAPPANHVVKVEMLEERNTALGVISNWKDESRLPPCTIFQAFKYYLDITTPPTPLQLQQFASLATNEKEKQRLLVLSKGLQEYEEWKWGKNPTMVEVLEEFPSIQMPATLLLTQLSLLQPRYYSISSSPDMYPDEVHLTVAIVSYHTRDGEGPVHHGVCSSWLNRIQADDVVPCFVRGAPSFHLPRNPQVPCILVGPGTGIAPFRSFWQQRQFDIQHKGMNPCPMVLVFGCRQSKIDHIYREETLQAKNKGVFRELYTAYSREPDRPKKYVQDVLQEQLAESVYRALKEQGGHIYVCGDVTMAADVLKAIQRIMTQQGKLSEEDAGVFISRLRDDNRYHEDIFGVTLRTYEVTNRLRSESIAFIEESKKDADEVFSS

[2] = DRUGMATRIX: Glutamate, Kainate radioligand binding (ligand: [3H] Kainic acid); type: cell membranes, Rattus norvegicus, Wistar, Brain, Membrane; conditions: Not Active = under 50% inhibition at 10 µM
Progesterone receptor = molecular target: T1, Progesterone receptor (Bos taurus, UniProt Q690N0); test: DRUGMATRIX: Progesterone radioligand binding (ligand: [3H] R-5020); type: tissue-based, Uterus; conditions: Not Active = under 50% inhibition at 10 µM
T1 sequence (Q690N0 whole entry): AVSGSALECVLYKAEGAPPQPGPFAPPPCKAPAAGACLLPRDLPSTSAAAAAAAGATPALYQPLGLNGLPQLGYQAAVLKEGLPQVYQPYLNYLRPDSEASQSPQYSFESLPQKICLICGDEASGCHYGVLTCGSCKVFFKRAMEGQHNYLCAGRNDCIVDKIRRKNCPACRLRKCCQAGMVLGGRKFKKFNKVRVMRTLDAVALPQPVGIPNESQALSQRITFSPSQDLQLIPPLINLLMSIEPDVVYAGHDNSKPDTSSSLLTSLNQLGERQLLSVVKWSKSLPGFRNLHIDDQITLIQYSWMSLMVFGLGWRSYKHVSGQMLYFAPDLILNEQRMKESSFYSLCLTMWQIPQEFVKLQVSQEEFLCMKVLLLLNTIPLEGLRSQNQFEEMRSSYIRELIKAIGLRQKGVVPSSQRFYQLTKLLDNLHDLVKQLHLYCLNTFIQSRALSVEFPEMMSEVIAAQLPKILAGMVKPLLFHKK

Androgen receptor = molecular target: T2, Androgen receptor (Rattus norvegicus, UniProt P15207); further: in other assays of this panel Not Active means under 50% inhibition at 10 µM
T2 sequence (P15207 whole entry): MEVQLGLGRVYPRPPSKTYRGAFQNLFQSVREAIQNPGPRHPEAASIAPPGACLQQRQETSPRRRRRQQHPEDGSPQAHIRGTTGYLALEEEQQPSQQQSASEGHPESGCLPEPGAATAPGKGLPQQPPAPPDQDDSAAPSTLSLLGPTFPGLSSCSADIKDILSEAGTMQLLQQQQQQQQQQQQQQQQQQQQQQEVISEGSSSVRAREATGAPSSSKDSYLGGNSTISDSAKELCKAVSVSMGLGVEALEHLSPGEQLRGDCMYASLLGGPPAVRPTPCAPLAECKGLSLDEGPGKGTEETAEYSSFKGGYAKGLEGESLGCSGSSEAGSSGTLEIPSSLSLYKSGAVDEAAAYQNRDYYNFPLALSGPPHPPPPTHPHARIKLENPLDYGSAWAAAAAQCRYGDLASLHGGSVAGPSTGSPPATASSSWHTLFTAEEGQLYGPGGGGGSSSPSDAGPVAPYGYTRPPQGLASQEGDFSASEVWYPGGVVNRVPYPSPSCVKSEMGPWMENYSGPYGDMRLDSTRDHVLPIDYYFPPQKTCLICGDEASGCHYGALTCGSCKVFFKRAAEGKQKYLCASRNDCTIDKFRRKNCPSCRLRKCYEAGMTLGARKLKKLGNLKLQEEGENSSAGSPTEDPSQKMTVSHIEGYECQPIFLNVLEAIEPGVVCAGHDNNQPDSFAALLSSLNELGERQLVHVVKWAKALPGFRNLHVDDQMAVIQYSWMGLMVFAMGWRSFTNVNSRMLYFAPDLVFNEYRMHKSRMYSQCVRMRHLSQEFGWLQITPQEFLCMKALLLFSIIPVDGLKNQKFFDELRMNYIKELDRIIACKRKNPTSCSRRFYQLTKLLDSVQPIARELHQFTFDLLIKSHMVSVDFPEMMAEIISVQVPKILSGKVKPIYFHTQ

Cytochrome P450 3A4 = Cytochrome P450 3A4 (Homo sapiens, UniProt P08684); conditions: bti-tn-5b1-4; further: in other assays of this panel Not Active means under 50% inhibition at 10 µM
Cytochrome P450 3A4, sequence (P08684 whole entry): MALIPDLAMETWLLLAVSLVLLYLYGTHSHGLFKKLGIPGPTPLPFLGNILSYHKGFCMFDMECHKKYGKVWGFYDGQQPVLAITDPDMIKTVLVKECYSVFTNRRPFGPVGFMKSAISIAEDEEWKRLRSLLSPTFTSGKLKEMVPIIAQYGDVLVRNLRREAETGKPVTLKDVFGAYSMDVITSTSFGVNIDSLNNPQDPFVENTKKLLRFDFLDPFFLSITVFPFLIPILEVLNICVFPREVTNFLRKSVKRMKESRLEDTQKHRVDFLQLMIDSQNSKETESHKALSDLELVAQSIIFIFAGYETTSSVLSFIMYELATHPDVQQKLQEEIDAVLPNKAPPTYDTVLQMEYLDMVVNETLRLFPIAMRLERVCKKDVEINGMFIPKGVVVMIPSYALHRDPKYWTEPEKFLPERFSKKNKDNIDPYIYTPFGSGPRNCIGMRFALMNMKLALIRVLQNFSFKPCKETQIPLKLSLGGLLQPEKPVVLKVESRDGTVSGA

Cytochrome P450 2D6 = Cytochrome P450 2D6 (Homo sapiens, UniProt P10635); further: in other assays of this panel Not Active means under 50% inhibition at 10 µM
Cytochrome P450 2D6, sequence (P10635 whole entry): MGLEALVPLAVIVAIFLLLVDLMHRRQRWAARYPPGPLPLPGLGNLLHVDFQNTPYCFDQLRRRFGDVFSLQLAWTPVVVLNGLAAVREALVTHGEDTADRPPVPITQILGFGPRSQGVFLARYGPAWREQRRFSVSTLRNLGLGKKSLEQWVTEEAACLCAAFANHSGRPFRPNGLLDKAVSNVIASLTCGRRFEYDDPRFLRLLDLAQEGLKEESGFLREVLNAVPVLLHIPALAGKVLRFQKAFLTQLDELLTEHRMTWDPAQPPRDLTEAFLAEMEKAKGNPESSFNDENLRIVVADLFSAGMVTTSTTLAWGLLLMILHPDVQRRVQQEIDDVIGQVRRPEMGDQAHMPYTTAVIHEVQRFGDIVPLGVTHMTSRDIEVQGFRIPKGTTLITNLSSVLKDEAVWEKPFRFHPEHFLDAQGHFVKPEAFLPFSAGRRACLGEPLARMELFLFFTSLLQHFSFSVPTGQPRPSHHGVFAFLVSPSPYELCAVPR

| Compound | IC50 [1] | IC50 (Nitric oxide synthase 1) | IC50 [2] | Ki [2] | IC50 (Progesterone receptor) | IC50 (Androgen receptor) | IC50 (Cytochrome P450 3A4) | Ki (Cytochrome P450 3A4) | Ki [1] | Ki (Nitric oxide synthase 1) | Ki (Progesterone receptor) | Ki (Androgen receptor) | IC50 (Cytochrome P450 2D6) [nM] |
| --- | --- | --- | --- | --- | --- | --- | --- | --- | --- | --- | --- | --- | --- |
| CC(C)CN(C[C@@H](O)[C@H](Cc1ccccc1)NC(=O)O[C@H]1CCOC1)S(=O)(=O)c1ccc(N)cc1 | Not Active | Not Active | Not Active | Not Active | Not Active | Not Active | – | – | – | – | – | – | – |
| NC(=O)N1c2ccccc2CCc2ccccc21 | Not Active | Not Active | Not Active | Not Active | Not Active | Not Active | Not Active | Not Active | – | – | – | – | – |
| Cc1onc(O)c1CC(N)C(=O)O (racemic) [(R,S)-AMPA] | Not Active | Not Active | Not Active | Not Active | Not Active | Not Active | Not Active | Not Active | – | – | – | – | – |
| Nc1c(Br)cc(Br)cc1CN[C@H]1CC[C@H](O)CC1 [AMBROXOL] | Not Active | Not Active | Not Active | Not Active | Not Active | Not Active | – | – | – | – | – | – | – |
| CCC1(c2ccc(N)cc2)CCC(=O)NC1=O (stereo unspecified) [AMINOGLUTETHIMIDE] | Not Active | Not Active | Not Active | Not Active | Not Active | Not Active | Not Active | Not Active | – | – | – | – | – |
| COc1ccc(C[C@H]2NC[C@H](O)[C@H]2OC(C)=O)cc1 [ANISOMYCIN] | Not Active | Not Active | Not Active | Not Active | Not Active | Not Active | Not Active | Not Active | Not Active | Not Active | Not Active | Not Active | – |
| Nc1ncn([C@@H]2O[C@H](CO)[C@@H](O)[C@H]2O)c(=O)n1 [AZACITIDINE] | Not Active | Not Active | Not Active | Not Active | Not Active | Not Active | Not Active | Not Active | – | – | – | – | – |
| CN(C)C(=O)Oc1cc(OC(=O)N(C)C)cc(C(O)CNC(C)(C)C)c1 (stereo unspecified) [BAMBUTEROL] | Not Active | Not Active | Not Active | Not Active | Not Active | Not Active | Not Active | Not Active | – | – | – | – | 2000 |
| CN(Cc1ccc(C(C)(C)C)cc1)Cc1cccc2ccccc12 [BUTENAFINE] | Not Active | Not Active | Not Active | Not Active | Not Active | – | Not Active | Not Active | – | – | – | – | 300 |
| C[C@H](CS)C(=O)N1CCC[C@H]1C(=O)O [CAPTOPRIL] | Not Active | Not Active | Not Active | Not Active | Not Active | Not Active | Not Active | Not Active | – | – | – | – | – |
| CC1=C2C(=CO[C@H](C)[C@H]2C)C(O)=C(C(=O)O)C1=O [CITRININ] | Not Active | Not Active | Not Active | Not Active | Not Active | Not Active | Not Active | Not Active | – | – | – | – | – |
| CC(C)(C)NCC(O)c1cc(Cl)c(N)c(Cl)c1 (stereo unspecified) [CLENBUTEROL] | Not Active | Not Active | Not Active | Not Active | Not Active | Not Active | Not Active | Not Active | – | – | – | – | – |
| Cc1c2oc3c(C)ccc(C(=O)N[C@@H]4C(=O)N[C@H](C(C)C)C(=O)N5CCC[C@H]5C(=O)N(C)CC(=O)N(C)[C@@H](C(C)C)C(=O)O[C@@H]4C)c3nc-2c(C(=O)N[C@@H]2C(=O)N[C@H](C(C)C)C(=O)N3CCC[C@H]3C(=O)N(C)CC(=O)N(C)[C@@H](C(C)C)C(=O)O[C@@H]2C)c(N)c1=O [DACTINOMYCIN] (I: T[dV]P[Sar][NMeV] / II: T[dV]P[Sar][NMeV]; ester I:1-I:C, II:1-II:C; linker I:N-II:N via Actinocin(1to9)) | Not Active | Not Active | Not Active | Not Active | Not Active | Not Active | Not Active | Not Active | – | – | – | – | – |
| CNCCCN1c2ccccc2CCc2ccccc21 [DESIPRAMINE] | Not Active | Not Active | Not Active | Not Active | Not Active | Not Active | Not Active | Not Active | – | – | – | – | – |
| O=c1oc2ccccc2c(O)c1Cc1c(O)c2ccccc2oc1=O [DICUMAROL] | Not Active | Not Active | Not Active | Not Active | Not Active | Not Active | Not Active | Not Active | – | – | – | – | – |
| C[C@H]1O[C@@H](O[C@H]2[C@@H](O)C[C@H](O[C@H]3[C@@H](O)C[C@H](O[C@H]4CC[C@@]5(C)[C@H](CC[C@@H]6[C@@H]5C[C@@H](O)[C@]5(C)[C@@H](C7=CC(=O)OC7)CC[C@]65O)C4)O[C@@H]3C)O[C@@H]2C)C[C@H](O)[C@@H]1O [DIGOXIN] | Not Active | Not Active | Not Active | Not Active | Not Active | Not Active | Not Active | Not Active | – | – | – | – | – |
| CC(C)[C@H]1C(=O)N2CCC[C@H]2[C@]2(O)O[C@](NC(=O)[C@@H]3C=C4c5cccc6[nH]cc(c56)C[C@H]4N(C)C3)(C(C)C)C(=O)N12 [ERGOCORNINE] | Not Active | Not Active | Not Active | Not Active | Not Active | Not Active | – | – | – | – | – | – | – |
| C=C(C)C1(O)OC(=O)C=C1OC (stereo unspecified) [PENICILLIC ACID] | Not Active | Not Active | Not Active | Not Active | Not Active | Not Active | Not Active | Not Active | – | – | – | – | – |
| CCCN1C[C@H](CSC)C[C@@H]2c3cccc4[nH]cc(c34)C[C@H]21 [PERGOLIDE] | Not Active | Not Active | Not Active | Not Active | Not Active | – | Not Active | Not Active | – | – | – | – | 200 |
| CCOc1ccc(NC(C)=O)cc1 [PHENACETIN] | Not Active | Not Active | Not Active | Not Active | Not Active | Not Active | Not Active | Not Active | – | – | – | – | – |
| Cc1ccc(N(CC2=NCCN2)c2cccc(O)c2)cc1 [PHENTOLAMINE] | Not Active | Not Active | Not Active | Not Active | Not Active | – | – | – | – | – | – | – | 10000 |
| CADMIUM ACETATE | Not Active | Not Active | Not Active | Not Active | Not Active | Not Active | Not Active | Not Active | Not Active | Not Active | Not Active | Not Active | – |
| LEAD (II) ACETATE | Not Active | Not Active | Not Active | Not Active | Not Active | Not Active | Not Active | Not Active | Not Active | Not Active | Not Active | Not Active | – |
| LIPOPOLYSACCHARIDE E. COLI O55:B5 | Not Active | Not Active | Not Active | Not Active | Not Active | Not Active | Not Active | Not Active | Not Active | Not Active | Not Active | Not Active | – |
